This note sets out measurements from ChEMBL document CHEMBL3108675, “Structure, absolute configuration, and antidiarrheal activity of a thymol derivative from Ageratina cylindrica” (J Nat Prod, 2014).

SMILES strings stand for the structures. Where a name gives a salt, the structure may show the parent alone.

The species entered for one test is Rattus norvegicus. Nature of the test: Antidiarrheal activity in rat assessed as inhibition of charcoal-gum acacia-induced hyperperistalsis. In kind it is functional. Particulars: read-out: ID50 (the source's name).
For a further test, the system named is Giardia intestinalis. Nature of the test: Antiprotozoal activity against Giardia lamblia IMSS:1090:1. In kind it is functional, organism-based. The following applies: Giardia duodenalis.
A further test relates to Entamoeba histolytica. The experiment in a line: Antiprotozoal activity against Entamoeba histolytica HM-1:IMSS. The class given is functional, organism-based.

What is called IC50 is the concentration that gives 50% inhibition. A low value points to greater potency in that assay.

Regarding `CC(C)C(=O)Oc1cc(C=O)c(O)cc1[C@@]1(COC(=O)c2ccccc2)CO1`, the ED50 in the test listed under Rattus norvegicus amounted to 0.85 µmol/kg. For the same compound, the values for the IC50 with Giardia intestinalis and in the test on Entamoeba histolytica were 167 µM and 185 µM, respectively.
As for `Cc1ncc([N+](=O)[O-])n1CCO` [METRONIDAZOLE], the IC50 in the test on Entamoeba histolytica is 0.23 µM.
For the compound `CC[C@H]1CN2CCc3cc(OC)c(OC)cc3[C@@H]2C[C@@H]1C[C@H]1NCCc2cc(OC)c(OC)cc21` [EMETINE], in the test on Giardia intestinalis, 0.83 µM corresponded to half-maximal inhibition (IC50).
For the compound `Oc1cc(O)c2c(c1)OC(c1ccc(O)c(O)c1)C(O)C2` (stereo not drawn) [CATECHIN], the values for the IC50 in the test with Giardia intestinalis and in the test with Entamoeba histolytica were 117 µM and 226 µM, respectively.
Take `CN(C)C(=O)C(CCN1CCC(O)(c2ccc(Cl)cc2)CC1)(c1ccccc1)c1ccccc1` [LOPERAMIDE HYDROCHLORIDE]: the ED50 in the test listed under Rattus norvegicus stood at 0.2 µmol/kg.
